The results in this text go back to US20230011571A1, “SMALL MOLECULE FURIN INHIBITORS FOR TREATING INFECTIOUS DISEASES” (BP Asset V, Inc., priority 2019, published 2023).

Format in all cases: cell-based
The test system of one assay is dengue virus (DENV). Description: microbe, parasite or virus in culture. Conditions: Dengue virus, Vero, 120 h, read-out: Percent viral inhibition DENY.
Assay [1] deals with Chikungunya virus (CHIKV). Nature of the assay: microbe, parasite or virus in culture. The note with it: Chikungunya virus, Vero, 48 h, read-out: Percent viral inhibition CHKV.
A further assay relates to Marburg virus (MARV). Nature of the assay: organism not typed. Conditions: Vero, 72 h, read-out: Percent viral inhibition MARV.

The inhibition is the change of the read-out against control, counted positive when it falls. As for `NC1(CO)CCN(c2ncc(Oc3cc(CN4CCC(CC(=O)O)CC4)cc(-c4cc(Cl)cc(Cl)c4)n3)cn2)CC1` [Example 165, 2-(1-((2-((2-(4-amino-4-(hydroxymethyl)piperidin-1-yl)pyrimidin-5-yl)oxy)-6-(3,5-dichlorophenyl)pyridin-4-yl)methyl)piperidin-4-yl) acetic acid], the inhibition at 1 µM in the assay with dengue virus (DENV) worked out at 36.9%; in assay [1], 18.6%; in the assay with Marburg virus (MARV), 50.9%.
For `CC(O)CCN1CCN(c2ncc(Oc3cc(CN4CCC(CC(=O)O)CC4)cc(-c4cc(Cl)cc(Cl)c4)n3)cn2)CC1` (stereo not drawn) [Example 237, 2-(1-((2-(3,5-dichlorophenyl)-6-((2-(4-(3-hydroxybutyl)piperazin-1-yl)pyrimidin-5-yl)oxy)pyridin-4-yl)methyl)piperidin-4-yl)acetic acid] the same measures were 52.1%, 37% and 37.7%.
For `CCC(CN1CCN(c2ccc(Oc3cc(CN4CCC(CNC(C)=O)CC4)cc(-c4cc(Cl)cc(Cl)c4)n3)cn2)CC1)C(=O)O` (stereo not drawn) [Example 288, 2-((4-(5-((4-((4-(acetamidomethyl)piperidin-1-yl)methyl)-6-(3,5-dichlorophenyl)pyridin-2-yl)oxy)pyridin-2-yl)piperazin-1-yl)methyl)butanoic acid], the inhibition at 1 µM in the assay on dengue virus (DENV) came to 52.2%; in assay [1], 28.2%; with Marburg virus (MARV) it was 49.1%.
For `CN1CCN(c2ncc(Oc3cc(CN4CCC(CC(=O)O)CC4)cc(-c4cc(Cl)cc(Cl)c4)n3)cn2)CC(C)(O)C1` (stereo not drawn) [Example 146, 2-(1-((2-(3,5-dichlorophenyl)-6-((2-(6-hydroxy-4,6-dimethyl-1,4-diazepan-1-yl)pyrimidin-5-yl)oxy)pyridin-4-yl)methyl)piperidin-4-yl)acetic acid] the same measures were 41.8%, 23.1% and 66.2%.
For `CC(=O)NCC1CCN(Cc2cc(Oc3ccc(N4C[C@@H]5C[C@H]4CN5CCS(C)(=O)=O)nc3)nc(-c3cc(Cl)cc(Cl)c3)c2)CC1` [Example 183, N-((1-((2-(3,5-dichlorophenyl)-6-((6-((1S,4S)-5-(2-(methylsulfonyl)ethyl)-2,5-diazabicyclo[2.2.1]heptan-2-yl)pyridin-3-yl)oxy)pyridin-4-yl)methyl)piperidin-4-yl)methyl)acetamide] the same measures were 21%, 16.4% and 74.8%.
Regarding `O=C(O)CC1CCN(Cc2cc(Oc3cnc(N4CCNCC(O)C4)nc3)nc(-c3cc(Cl)cc(Cl)c3)c2)CC1` (stereo not drawn) [Example 123, 2-(1-((2-(3,5-dichlorophenyl)-6-((2-(6-hydroxy-1,4-diazepan-1-yl)pyrimidin-5-yl)oxy)pyridin-4-yl)methyl)piperidin-4-yl)acetic acid], the inhibition at 1 µM in the assay on dengue virus (DENV) stood at 39.9%; in assay [1], 19.2%; in the assay with Marburg virus (MARV), 50.6%.
On the same counts, the results for `CC(C)(O)CCN1CCN(c2ncc(Oc3cc(CN4CCC(CC(=O)O)CC4)cc(-c4cc(Cl)cc(Cl)c4)n3)cn2)CC1` [Example 279, 2-(1-((2-(3,5-dichlorophenyl)-6-((2-(4-(3-hydroxy-3-methylbutyl)piperazin-1-yl)pyrimidin-5-yl)oxy)pyridin-4-yl)methyl)piperidin-4-yl)acetic acid] are 27.5%, 37.8% and 18.8%.
As to `CN1CCCN(c2ncc(Oc3cc(CN4CC[C@@H]5[C@H](CC4)[C@H]5C(=O)O)cc(-c4cc(Cl)cc(Cl)c4)n3)cn2)CC1` [Example 397, (1R,7S,8r)-4-((2-(3,5-dichlorophenyl)-6-((2-(4-methyl-1,4-diazepan-1-yl)pyrimidin-5-yl)oxy)pyridin-4-yl)methyl)-4-azabicyclo[5.1.0]octane-8-carboxylic acid], the inhibition at 1 µM worked out at 38.7% with dengue virus (DENV), 25.1% in assay [1] and 46.2% with Marburg virus (MARV).
For `CNC(=O)OCC1CCN(Cc2cc(Oc3cnc(N4CCN(C5CC(C(=O)O)C5)CC4)nc3)nc(-c3cc(Cl)cc(Cl)c3)c2)CC1` (stereo not drawn) [Example 211, 3-(4-(5-((6-(3,5-dichlorophenyl)-4-((4-(((methylcarbamoyl)oxy)methyl)piperidin-1-yl)methyl)pyridin-2-yl)oxy)pyrimidin-2-yl)piperazin-1-yl)cyclobutanecarboxylic acid], the inhibition at 1 µM was determined as 13.3% in the assay on dengue virus (DENV), 44.7% in assay [1] and 62.5% in the assay on Marburg virus (MARV).
On the same counts, the results for `COC1CN(C)CCN(c2ncc(Oc3cc(CN4CCC(CC(=O)O)CC4)cc(-c4cc(Cl)cc(Cl)c4)n3)cn2)C1` (stereo not drawn) [Example 144, 2-(1-((2-(3,5-dichlorophenyl)-6-((2-(6-methoxy-4-methyl-1,4-diazepan-1-yl)pyrimidin-5-yl)oxy)pyridin-4-yl)methyl)piperidin-4-yl)acetic acid] are 35%, 32.6% and 56.6%.
On the same counts, the results for `CNC(=O)NCC1CCN(Cc2cc(Oc3ccc(N4CCN(CCS(C)(=O)=O)CC4)nc3)nc(-c3cc(Cl)cc(Cl)c3)c2)CC1` [Example 290, 1-((1-((2-(3,5-dichlorophenyl)-6-((6-(4-(2-(methylsulfonyl)ethyl)piperazin-1-yl)pyridin-3-yl)oxy)pyridin-4-yl)methyl)piperidin-4-yl)methyl)-3-methylurea] are 18.9%, 0% and 50.6%.
For `CC(=O)NCC1CCN(Cc2cc(Oc3cnc(N4CCN(C(C)CC(N)=O)CC4)nc3)nc(-c3cc(Cl)cc(Cl)c3)c2)CC1` (stereo not drawn) [Example 95] the same measures were 58.1%, 46.6% and 59%.
For the compound `NC1CCN(c2ncc(Oc3cc(CN4CCC(CC(=O)O)CC4)cc(-c4cc(Cl)cc(Cl)c4)n3)cn2)CC1` [Example 158, 2-(1-((2-((2-(4-aminopiperidin-1-yl)pyrimidin-5-yl)oxy)-6-(3,5-dichlorophenyl)pyridin-4-yl)methyl)piperidin-4-yl)acetic acid], the inhibition at 1 µM in the assay on dengue virus (DENV) was found to be 19.3%; in assay [1], 2.85%; in the assay with Marburg virus (MARV), 18%.
On to `CNC(=O)NCC1CCN(Cc2cc(Oc3ccc(N4CCN(CCC(=O)O)CC4)nc3)nc(-c3cc(Cl)cc(Cl)c3)c2)CC1` [Example 41, 3-(4-(5-((6-(3,5-dichlorophenyl)-4-((4-((3-methylureido)methyl)piperidin-1-yl)methyl)pyridin-2-yl)oxy)pyridin-2-yl)piperazin-1-yl)propanoic acid], for which the inhibition at 1 µM is 68.7% with dengue virus (DENV), 30.1% in assay [1] and 43% with Marburg virus (MARV).
On the same counts, the results for `CC(=O)NCC1CCN(Cc2cc(Oc3cnc(N4CCN(CC(C)C(=O)O)CC4)nc3)nc(-c3cc(Cl)cc(Cl)c3)c2)CC1` (stereo not drawn) [Example 283, 3-(4-(5-((4-((4-(acetamidomethyl)piperidin-1-yl)methyl)-6-(3,5-dichlorophenyl)pyridin-2-yl)oxy)pyrimidin-2-yl)piperazin-1-yl)-2-methylpropanoic acid] are 43.8%, 29.8% and 49.6%.
On the same counts, the results for `CC(CCN1CCN(c2ncc(Oc3cc(CN4CCC(CCO)CC4)cc(-c4cc(Cl)cc(Cl)c4)n3)cn2)CC1)C(=O)O` (stereo not drawn) [Example 57, 4-(4-(5-((6-(3,5-dichlorophenyl)-4-((4-(2-hydroxyethyl)piperidin-1-yl)methyl)pyridin-2-yl)oxy)pyrimidin-2-yl)piperazin-1-yl)-2-methylbutanoic acid] are 37.6%, 21.1% and 54.4%.
As to `CC(CC1CCN(Cc2cc(Oc3cnc(N4CCN(C)CC4)nc3)nc(-c3cc(Cl)cc(Cl)c3)c2)CC1)C(=O)O` (stereo not drawn) [Example 131, 3-(1-((2-(3,5-dichlorophenyl)-6-((2-(4-methylpiperazin-1-yl)pyrimidin-5-yl)oxy)pyridin-4-yl)methyl)piperidin-4-yl)-2-methylpropanoic acid], the inhibition at 1 µM was found to be 20.7% in the assay on dengue virus (DENV), 3.11% in assay [1] and 52.4% in the assay on Marburg virus (MARV).
Take `CC(=O)NCC1CCN(Cc2cc(Oc3ccc(N4CCN(CCOC(N)=O)CC4)nc3)nc(-c3cc(Cl)cc(Cl)c3)c2)CC1` [Example 31, 2-(4-(5-((4-((4-(acetamidomethyl)piperidin-1-yl)methyl)-6-(3,5-dichlorophenyl)pyridin-2-yl)oxy)pyridin-2-yl)piperazin-1-yl)ethylcarbamate]: the inhibition at 1 µM with dengue virus (DENV) amounted to 38.9%; in assay [1] it was 18.7%; in the assay on Marburg virus (MARV), 61.4%.
For `CNC(=O)NCC1CCN(Cc2cc(Oc3cnc(N4CCN(C5CC(C(=O)O)C5)CC4)nc3)nc(-c3cc(Cl)cc(Cl)c3)c2)CC1` (stereo not drawn) [Example 221, 3-(4-(5-((6-(3,5-dichlorophenyl)-4-((4-((3-methylureido)methyl)piperidin-1-yl)methyl)pyridin-2-yl)oxy)pyrimidin-2-yl)piperazin-1-yl) cyclobutanecarboxylic acid] the same measures were 25.9%, 44.4% and 63.2%.
On the same counts, the results for `CNC(=O)NCC1CCN(Cc2cc(Oc3cnc(N4CCN(C(C)CCS(C)(=O)=O)CC4)nc3)nc(-c3cc(F)cc(Cl)c3)c2)CC1` (stereo not drawn) [Example 373, 1-((1-((2-(3-chloro-5-fluorophenyl)-6-((2-(4-(4-(methylsulfonyl)butan-2-yl)piperazin-1-yl)pyrimidin-5-yl)oxy)pyridin-4-yl)methyl)piperidin-4-yl)methyl)-3-methylurea] are 53.4%, 28.8% and 67.8%.
